The values below come from ChEMBL document CHEMBL4190369, “Indolinone Inhibitors of ENT1 for the Treatment of Schizophrenia” (ACS Med Chem Lett, 2017).

The inhibition in vivo is the relative decrease from the control value, in per cent.

In the assay the test system is Mus musculus. Description: Anti-schizophrenic activity in mouse assessed inhibition of L-687414-induced hyperlocomotion at 30 mg/kg, ip pretreated for 15 mins followed by L-687414 addition measured at 5 mins interval for 30 mins relative to control. Type of assay: functional.
Take `Cc1ncc(-c2ccc3c(c2)N(c2cnc(-n4ccnc4C)cn2)C(=O)C3(C)C)cn1`: the inhibition in vivo at 30 mg/kg was 96.3%. Under `Cc1ncc(-c2ccc3c(c2)N(c2cncc(N4CCCC4=O)n2)C(=O)C3(C)C)cn1` stands 87.8%. Under `Cc1ncc(-c2ccc3c(c2)N(c2ccc4c(n2)N(C)C(=O)C4(C)C)C(=O)C3(C)C)cn1` stands 99.5%; under `Cc1ncc(-c2ccc3c(c2)N(c2cnc(C)c(N4CCOC4=O)n2)C(=O)C3(C)C)cn1`, 89.7%. Under `Cc1ncc(-c2ccc3c(c2)N(c2cncc(N4CCOCC4)n2)C(=O)C3(C)C)cn1` stands 90%; under `Cc1ncc(-c2ccc3c(c2)N(c2ccc4c(c2)N(C)C(=O)CO4)C(=O)C3(C)C)cn1`, 93.8%; under `Cc1ncc(-c2ccc3c(c2)N(c2cncc(N4CCOC4=O)n2)C(=O)C3(C)C)cn1`, 87.1%. Take `Cc1ncc(-c2ccc3c(c2)N(c2cnc4c(c2)C(C)(C)C(=O)N4C)C(=O)C3(C)C)cn1`: the inhibition in vivo at 30 mg/kg worked out at 93.5%. Under `Cc1ncc(-c2ccc3c(c2)N(c2cnc(C)c(N4CCOCC4)n2)C(=O)C3(C)C)cn1` stands 88.8%.
